Laboratory results from ChEMBL document CHEMBL5465560, “Selectivity Literature for EUbOPEN Chemogenomic Library” (2024).

How the values were obtained:
[1] = target: T1, Serine/threonine-protein kinase TAO1 (Homo sapiens) (UniProt Q7L7X3); experiment: Selectivity interaction (KinomeScan (DiscoverX)) EUB0001049a TAOK1; conditions: at 1 µM
T1 sequence (whole entry): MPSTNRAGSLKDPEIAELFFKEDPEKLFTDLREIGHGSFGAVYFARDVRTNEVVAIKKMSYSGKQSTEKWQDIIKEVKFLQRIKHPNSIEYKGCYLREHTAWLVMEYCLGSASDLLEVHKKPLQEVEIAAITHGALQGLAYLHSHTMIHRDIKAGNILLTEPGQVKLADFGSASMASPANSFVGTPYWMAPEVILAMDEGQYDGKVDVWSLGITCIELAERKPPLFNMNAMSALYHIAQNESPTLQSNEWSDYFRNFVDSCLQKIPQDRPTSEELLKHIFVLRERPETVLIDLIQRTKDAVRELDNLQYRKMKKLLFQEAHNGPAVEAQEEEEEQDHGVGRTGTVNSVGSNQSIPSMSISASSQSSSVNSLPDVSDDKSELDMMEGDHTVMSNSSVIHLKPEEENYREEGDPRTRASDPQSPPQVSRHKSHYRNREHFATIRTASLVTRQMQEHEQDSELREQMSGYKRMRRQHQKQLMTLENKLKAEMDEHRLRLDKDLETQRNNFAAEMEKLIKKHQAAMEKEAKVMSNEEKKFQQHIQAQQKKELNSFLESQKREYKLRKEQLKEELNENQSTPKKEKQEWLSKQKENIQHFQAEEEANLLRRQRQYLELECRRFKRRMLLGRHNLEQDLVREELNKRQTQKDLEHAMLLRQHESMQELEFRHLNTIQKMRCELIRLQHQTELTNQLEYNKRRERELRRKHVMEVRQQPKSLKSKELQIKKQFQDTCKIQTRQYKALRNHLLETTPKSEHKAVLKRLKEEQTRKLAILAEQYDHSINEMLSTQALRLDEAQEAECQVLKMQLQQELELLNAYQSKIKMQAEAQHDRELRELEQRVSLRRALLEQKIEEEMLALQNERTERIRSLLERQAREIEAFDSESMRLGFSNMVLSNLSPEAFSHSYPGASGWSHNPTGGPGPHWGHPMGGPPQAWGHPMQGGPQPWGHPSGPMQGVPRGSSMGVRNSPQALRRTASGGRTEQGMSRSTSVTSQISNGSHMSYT

[2] = target: T2, Muscarinic acetylcholine receptor M1 (Homo sapiens) (UniProt P11229); experiment: Selectivity interaction (Eurofins CEREP Diversity Profile (receptors and ion channels)) EUB0000279b CHRM1; conditions: at 10 µM
T2 sequence (whole entry): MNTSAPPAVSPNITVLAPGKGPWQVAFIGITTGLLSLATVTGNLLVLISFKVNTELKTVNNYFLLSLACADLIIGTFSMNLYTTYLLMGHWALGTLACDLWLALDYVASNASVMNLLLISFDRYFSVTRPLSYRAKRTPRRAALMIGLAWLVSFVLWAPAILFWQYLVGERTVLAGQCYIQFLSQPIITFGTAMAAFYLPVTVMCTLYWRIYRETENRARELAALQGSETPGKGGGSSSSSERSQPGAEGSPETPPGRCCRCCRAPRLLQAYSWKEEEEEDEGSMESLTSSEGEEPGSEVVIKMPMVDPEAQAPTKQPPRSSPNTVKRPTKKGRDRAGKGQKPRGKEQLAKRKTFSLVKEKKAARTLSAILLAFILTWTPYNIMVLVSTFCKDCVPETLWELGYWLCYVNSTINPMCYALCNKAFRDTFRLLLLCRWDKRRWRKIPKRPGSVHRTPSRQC

[3] = target: Tyrosine-protein kinase Yes (Homo sapiens) (UniProt P07947); experiment: Selectivity interaction (KinomeScan (DiscoverX)) EUB0001079a YES1; conditions: at 1 µM
Sequence of Tyrosine-protein kinase Yes (Homo sapiens) (P07947 2-543 limits assumed): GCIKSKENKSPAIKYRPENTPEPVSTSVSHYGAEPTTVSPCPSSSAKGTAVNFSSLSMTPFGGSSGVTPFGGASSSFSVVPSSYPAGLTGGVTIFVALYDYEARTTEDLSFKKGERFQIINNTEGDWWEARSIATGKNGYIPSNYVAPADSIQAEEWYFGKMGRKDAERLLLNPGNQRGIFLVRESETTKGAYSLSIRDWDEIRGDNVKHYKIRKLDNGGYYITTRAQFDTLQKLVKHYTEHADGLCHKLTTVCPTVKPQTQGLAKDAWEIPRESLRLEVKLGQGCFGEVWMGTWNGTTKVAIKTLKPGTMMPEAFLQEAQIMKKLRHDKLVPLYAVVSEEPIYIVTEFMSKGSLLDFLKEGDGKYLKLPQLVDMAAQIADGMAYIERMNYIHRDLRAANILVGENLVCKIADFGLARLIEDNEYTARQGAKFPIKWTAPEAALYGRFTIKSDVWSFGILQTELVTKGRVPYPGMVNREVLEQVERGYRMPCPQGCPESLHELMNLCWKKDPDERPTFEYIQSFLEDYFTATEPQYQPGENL

[4] = target: Microtubule-associated serine/threonine-protein kinase 1 (Homo sapiens) (UniProt Q9Y2H9); experiment: Selectivity interaction (KinomeScan (DiscoverX)) EUB0000092b MAST1; conditions: at 10 µM
Sequence of Microtubule-associated serine/threonine-protein kinase 1 (Homo sapiens) (Q9Y2H9 whole entry, looked up): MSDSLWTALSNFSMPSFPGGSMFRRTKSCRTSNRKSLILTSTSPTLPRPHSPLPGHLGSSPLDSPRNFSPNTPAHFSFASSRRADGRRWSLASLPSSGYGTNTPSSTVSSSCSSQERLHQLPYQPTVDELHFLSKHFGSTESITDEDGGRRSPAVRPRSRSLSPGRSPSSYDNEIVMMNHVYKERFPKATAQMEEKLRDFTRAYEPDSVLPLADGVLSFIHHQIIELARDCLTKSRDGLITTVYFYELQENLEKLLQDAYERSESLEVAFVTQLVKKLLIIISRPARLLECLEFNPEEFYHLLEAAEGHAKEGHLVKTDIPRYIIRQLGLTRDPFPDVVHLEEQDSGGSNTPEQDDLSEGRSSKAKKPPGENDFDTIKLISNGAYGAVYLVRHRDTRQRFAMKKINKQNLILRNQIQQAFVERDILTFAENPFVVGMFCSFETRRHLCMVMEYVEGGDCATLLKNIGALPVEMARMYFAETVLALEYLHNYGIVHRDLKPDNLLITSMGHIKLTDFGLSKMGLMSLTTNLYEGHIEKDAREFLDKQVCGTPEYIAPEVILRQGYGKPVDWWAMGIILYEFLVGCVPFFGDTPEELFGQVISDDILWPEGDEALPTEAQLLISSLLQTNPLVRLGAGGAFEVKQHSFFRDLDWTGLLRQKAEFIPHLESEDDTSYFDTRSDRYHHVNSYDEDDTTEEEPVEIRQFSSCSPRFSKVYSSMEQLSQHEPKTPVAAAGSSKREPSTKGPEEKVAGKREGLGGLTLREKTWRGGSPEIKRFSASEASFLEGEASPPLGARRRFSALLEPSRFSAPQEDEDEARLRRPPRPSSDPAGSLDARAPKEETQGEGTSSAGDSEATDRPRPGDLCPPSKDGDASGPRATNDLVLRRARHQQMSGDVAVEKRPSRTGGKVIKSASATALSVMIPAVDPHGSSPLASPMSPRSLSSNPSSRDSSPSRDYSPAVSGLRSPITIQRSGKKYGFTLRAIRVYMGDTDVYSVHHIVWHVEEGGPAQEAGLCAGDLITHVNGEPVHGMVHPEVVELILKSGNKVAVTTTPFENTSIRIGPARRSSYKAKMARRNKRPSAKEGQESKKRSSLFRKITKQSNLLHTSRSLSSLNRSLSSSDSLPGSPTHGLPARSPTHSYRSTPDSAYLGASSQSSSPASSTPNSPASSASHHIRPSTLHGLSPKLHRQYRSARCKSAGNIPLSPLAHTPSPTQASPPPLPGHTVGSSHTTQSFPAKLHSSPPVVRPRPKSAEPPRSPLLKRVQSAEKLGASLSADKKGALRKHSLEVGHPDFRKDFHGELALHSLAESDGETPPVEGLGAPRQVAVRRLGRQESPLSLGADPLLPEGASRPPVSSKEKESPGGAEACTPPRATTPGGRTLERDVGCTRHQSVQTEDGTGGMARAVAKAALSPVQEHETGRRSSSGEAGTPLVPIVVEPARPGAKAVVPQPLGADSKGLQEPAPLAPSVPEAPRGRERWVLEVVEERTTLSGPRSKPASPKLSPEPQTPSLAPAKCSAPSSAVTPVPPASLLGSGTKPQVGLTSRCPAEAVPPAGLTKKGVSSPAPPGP

[5] = target: Tyrosine-protein kinase Blk (Homo sapiens) (UniProt P51451); experiment: Selectivity interaction (KinomeScan (DiscoverX)) EUB0001619a BLK; conditions: at 1 µM
Sequence of Tyrosine-protein kinase Blk (Homo sapiens) (P51451 2-505 limits assumed): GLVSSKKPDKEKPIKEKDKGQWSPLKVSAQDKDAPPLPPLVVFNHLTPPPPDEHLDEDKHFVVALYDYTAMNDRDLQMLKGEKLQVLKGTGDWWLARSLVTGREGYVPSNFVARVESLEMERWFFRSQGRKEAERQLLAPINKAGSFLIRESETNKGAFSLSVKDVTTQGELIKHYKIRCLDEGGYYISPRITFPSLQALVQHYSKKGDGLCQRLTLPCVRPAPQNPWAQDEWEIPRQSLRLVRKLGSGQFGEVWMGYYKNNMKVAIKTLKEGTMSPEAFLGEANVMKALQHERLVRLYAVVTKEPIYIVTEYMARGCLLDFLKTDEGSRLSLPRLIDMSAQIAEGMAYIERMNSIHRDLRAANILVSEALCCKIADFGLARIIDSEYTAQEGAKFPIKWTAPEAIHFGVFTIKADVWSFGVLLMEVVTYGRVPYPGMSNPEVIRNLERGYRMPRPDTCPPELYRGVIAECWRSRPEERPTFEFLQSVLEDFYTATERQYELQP

[6] = target: T3, Protein kinase C epsilon type (Homo sapiens) (UniProt Q02156); experiment: Selectivity interaction (KinomeScan (DiscoverX)) EUB0000695a PRKCE; conditions: at 100 nM
T3 sequence (whole entry): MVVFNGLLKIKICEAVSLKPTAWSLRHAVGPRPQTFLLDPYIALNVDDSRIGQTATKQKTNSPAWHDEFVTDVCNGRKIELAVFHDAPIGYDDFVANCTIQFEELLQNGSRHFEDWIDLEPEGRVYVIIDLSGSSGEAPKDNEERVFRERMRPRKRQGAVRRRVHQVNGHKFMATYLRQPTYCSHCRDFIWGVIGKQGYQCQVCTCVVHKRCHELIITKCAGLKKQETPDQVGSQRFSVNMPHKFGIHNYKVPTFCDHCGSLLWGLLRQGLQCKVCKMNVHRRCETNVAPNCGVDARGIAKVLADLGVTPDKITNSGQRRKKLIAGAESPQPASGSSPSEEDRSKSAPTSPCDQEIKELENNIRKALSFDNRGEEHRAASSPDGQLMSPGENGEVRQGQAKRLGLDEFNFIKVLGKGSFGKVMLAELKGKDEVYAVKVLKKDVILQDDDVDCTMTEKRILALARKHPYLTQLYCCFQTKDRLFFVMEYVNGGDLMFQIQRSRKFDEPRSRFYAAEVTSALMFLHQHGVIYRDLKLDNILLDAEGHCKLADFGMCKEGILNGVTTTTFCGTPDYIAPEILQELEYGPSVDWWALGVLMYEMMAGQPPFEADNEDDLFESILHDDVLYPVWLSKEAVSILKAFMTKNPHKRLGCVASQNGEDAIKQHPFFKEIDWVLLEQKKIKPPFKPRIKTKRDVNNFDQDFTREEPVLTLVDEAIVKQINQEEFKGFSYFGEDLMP

[7] = target: Protein arginine N-methyltransferase 8 (Homo sapiens, UniProt Q9NR22); experiment: Selectivity interaction (Methyltransferase screen (radiometric assays, panel of 8 PRMTs, 21 protein lysine methyltransferases, 3 DNA methyltransferases, and one RNA methyltransferase)) EUB0000272b PRMT8
Sequence of Protein arginine N-methyltransferase 8 (Q9NR22 2-394 limits assumed): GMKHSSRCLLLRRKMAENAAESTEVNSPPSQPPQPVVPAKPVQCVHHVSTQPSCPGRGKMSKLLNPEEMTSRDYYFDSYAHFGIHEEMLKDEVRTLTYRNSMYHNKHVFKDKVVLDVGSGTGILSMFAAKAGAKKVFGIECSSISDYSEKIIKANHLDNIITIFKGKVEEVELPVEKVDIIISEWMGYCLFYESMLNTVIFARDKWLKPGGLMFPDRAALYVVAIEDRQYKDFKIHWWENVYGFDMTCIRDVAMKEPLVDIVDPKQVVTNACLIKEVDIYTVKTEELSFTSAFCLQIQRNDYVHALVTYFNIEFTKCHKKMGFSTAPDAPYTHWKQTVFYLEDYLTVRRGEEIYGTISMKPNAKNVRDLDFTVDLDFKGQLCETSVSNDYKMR

COc1cc(Nc2nc(C)cc(-c3cnn4nc(OC)ccc34)n2)cc(C(F)(F)F)c1
% of control [1]: 96%

CC(=O)c1cc(-c2ccccc2OCC2CC2)c2ncccn12
% of control [2]: 115%

Nc1cnc(N2CCc3cc(S(=O)(=O)Nc4c(F)cc(Cl)cc4F)cc(N4CCCC4=O)c32)nc1 [TP-020n]
% of control [3]: 100%

CCC(=O)N1CCN(c2ccc(-n3c(=O)ccc4cnc5ccc(-c6cnc7ccccc7c6)cc5c43)cc2C(F)(F)F)CC1
% of control [4]: 93%

N#Cc1cccc(-c2c[nH]c3ncnc(N4CCOCC4)c23)c1
% of control [5]: 72%

Cc1cc(F)c(C(=O)Nc2cccc(-c3nncn3C(C)C)n2)cc1-n1cnc(C2CC2)c1
% of control [6]: 97%

Cc1cc(C)cc([C@H]2c3cc(C)ccc3NC(=O)CN2C(=O)c2ccc(Br)s2)c1
% of activity ([7]; at 1 µM): 100%
% of activity ([7]; at 10 µM): 96.7%
